The source made the active and inactive calls. Cut-off read from the data, not from the text of the source, for most assays here: actives have a measured IC50 and inactives only a lower limit.
How the values were obtained:
[1] = target: G-protein coupled receptor 55 (Homo sapiens, UniProt Q9Y2T6); test: selective activators of receptor GPR55 – imaging, U2OS cells, beta-arrestin-GFP redistribution, primary screen (AID 1961); assay type: functional
Coagulation factor XII = Coagulation factor XII (Homo sapiens, UniProt P00748); test: activated coagulation factor XII inhibitor potency, concentration-effect curve, cell-free (AID 716); assay type: functional
Vero [2] = test: Vero 76 cell viability after compound exposure – Vero 76 cells, synthesized analogs, cytotoxicity control for West Nile virus antiviral project, SAR follow-up (AID 2414); assay type: functional; conditions: Chlorocebus sabaeus
Vero [3] = test: Vero cell viability after compound exposure – synthesized analogs, set II, cytotoxicity control for West Nile virus antiviral project, SAR follow-up (AID 2402); assay type: functional; conditions: Chlorocebus sabaeus
Vero [4] = test: host cell viability loss, Vero E6 – synthesized analogs, cytotoxicity control for West Nile virus antiviral project, SAR follow-up (AID 2244); assay type: functional; conditions: Chlorocebus sabaeus
[5] = A Cell Based Assay for the Identification of Probe candidate Compounds with Anti- Venezuelan Equine Encephalitis virus. [Related pubchem assays: 2409, 2419, 1621, 2238, 2405, 2024, 2065, 2402, 2414, 1635, 1650, 2244 ]; assay type: functional
Vero [6] = test: antiviral protection of cells from WNV – synthesized analogs, SAR follow-up (AID 2238); assay type: functional, cell-based; conditions: Chlorocebus sabaeus
Vero [7] = test: antiviral activity against WNV, CPE read-out – cell-based (AID 2419); assay type: functional; conditions: Chlorocebus sabaeus
[8] = Trypanosoma cruzi growth suppression in host cells – NIH3T3 host cells, beta-gal luminescence, confirmation (AID 2044); assay type: functional, cell-based;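 note: intracellular parasites grown in NIH/3T3 mouse fibroblasts as host cells; luminescent beta-galactosidase reporter signal from transgenic T. cruzi replicating inside host cells; inhibitors lower the luminescence signal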
[9] = NIH3T3 cell viability loss – ATP luminescence, mouse fibroblasts, counter-screen, dose response (AID 2010); assay type: functional, cell-based;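 note: cells exposed to compound for about 90 hours before reading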
[10] = target: T1, Dual specificity protein phosphatase 3 (Homo sapiens, UniProt P51452); test: SAR VHR1 absorbance Assay for In Vitro dose response studies. [Related pubchem assays (depositor defined):AID1654, AID1661, AID1878, AID1992, AID2004]
[11] = target: T1, Dual specificity protein phosphatase 3; test: SAR VHR1 Fluorescent Assay for In Vitro dose response studies. [Related pubchem assays (depositor defined):AID1654, AID1661, AID1878, AID1992, AID2004, AID2070, AID2085]; assay type: functional
[12] = target: T2, Tyrosine-protein phosphatase non-receptor type 7 (Homo sapiens, UniProt P35236); test: redox-active compounds inhibiting HePTP phosphatase – biochemical, fluorescence, mechanism study (AID 2068); assay type: functional
T2 sequence (P35236 whole entry): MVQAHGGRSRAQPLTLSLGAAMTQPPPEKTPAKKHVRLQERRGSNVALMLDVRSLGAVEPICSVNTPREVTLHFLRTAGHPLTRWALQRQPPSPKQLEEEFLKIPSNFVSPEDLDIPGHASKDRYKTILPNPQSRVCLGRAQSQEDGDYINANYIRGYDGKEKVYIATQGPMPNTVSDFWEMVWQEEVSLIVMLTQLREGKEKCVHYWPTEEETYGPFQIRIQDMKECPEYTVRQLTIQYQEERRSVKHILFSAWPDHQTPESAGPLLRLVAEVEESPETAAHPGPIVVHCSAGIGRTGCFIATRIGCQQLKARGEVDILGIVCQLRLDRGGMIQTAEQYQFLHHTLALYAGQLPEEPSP

[13] = target: T3, Dual specificity protein phosphatase 6 (Rattus norvegicus, UniProt Q64346); test: SAR analysis of inhibitors of MKP-3 - Set 2. [Related pubchem assays (depositor defined):AID1055, AID1661, AID425, AID553, AID566]; assay type: functional
T3 sequence (Q64346 whole entry): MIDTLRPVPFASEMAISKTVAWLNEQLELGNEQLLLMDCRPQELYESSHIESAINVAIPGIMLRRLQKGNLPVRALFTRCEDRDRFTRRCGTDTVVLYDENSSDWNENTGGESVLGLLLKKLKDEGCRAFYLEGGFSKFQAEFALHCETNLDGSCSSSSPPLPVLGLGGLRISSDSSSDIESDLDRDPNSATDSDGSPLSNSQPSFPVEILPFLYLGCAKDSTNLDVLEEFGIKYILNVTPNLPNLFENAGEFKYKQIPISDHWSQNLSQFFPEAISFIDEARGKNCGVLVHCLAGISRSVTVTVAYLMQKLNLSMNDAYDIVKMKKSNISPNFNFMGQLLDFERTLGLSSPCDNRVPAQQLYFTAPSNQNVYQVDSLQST

[14] = target: T2, Tyrosine-protein phosphatase non-receptor type 7; test: inhibition of hematopoietic tyrosine phosphatase HePTP – biochemical, set 2, SAR follow-up (AID 449736); assay type: functional
[15] = target: T2, Tyrosine-protein phosphatase non-receptor type 7; test: SAR analysis of chemical inhibitors of HePTP using a Fluorescent assay - Set 2. [Related pubchem assays (depositor defined):AID1059, AID1077, AID1661, AID2085, AID521]; assay type: functional
[16] = target: T1, Dual specificity protein phosphatase 3; test: SAR VHR1 Fluorescent Assay for In Vitro dose response studies Set 2. [Related pubchem assays (depositor defined):AID1654, AID1661, AID1878]; assay type: functional
[17] = target: T3, Dual specificity protein phosphatase 6; assay type: functional
Tumor necrosis factor = Tumor necrosis factor (Homo sapiens, UniProt P01375); test: analog potency on TNFa NF-kB signaling – cell-based, revised, SAR follow-up (AID 2337); assay type: functional
[18] = target: Nucleotide-binding oligomerization domain-containing protein 1 (Homo sapiens, UniProt Q9Y239); test: blockers of NOD1 pathway activity – revised, SAR follow-up (AID 2333); assay type: functional
[19] = target: Nucleotide-binding oligomerization domain-containing protein 2 (Homo sapiens, UniProt Q9HC29); test: PubChem AID 2334; assay type: functional
HEK293 = test: cells; conditions: Homo sapiens;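 note: cells exposed to compound for 14 hours overnight before viability readout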
CAAX prenyl protease 2 = CAAX prenyl protease 2 (Saccharomyces cerevisiae S288c, UniProt Q03530); assay type: biochemical
[20] = target: Tyrosine-protein phosphatase non-receptor type 12 (Homo sapiens, UniProt Q05209); test: SAR Selectivity Analysis of small molecule inhibitors of PEST using pCAP in a fluorescence assay. [Related pubchem assays (depositor defined):AID1779, AID1784, AID2135]; assay type: functional
[21] = target: T4, Tyrosine-protein phosphatase non-receptor type 22 (Homo sapiens, UniProt Q9Y2R2); test: SAR LYP1 Fluorescent Assay using OMFP substrate for In Vitro dose response studies - Set 3. [Related pubchem assays (depositor defined):AID1779, AID1784, AID2140, AID2686]; assay type: functional
[22] = target: T4, Tyrosine-protein phosphatase non-receptor type 22; test: inhibition of lymphoid tyrosine phosphatase LYP – biochemical, pCAP fluorogenic substrate, fluorescence, set 3, SAR follow-up (AID 449727); assay type: functional
[23] = NIH/3T3 cell viability loss – mouse embryonic fibroblasts, dry powder, set 2, cytotoxicity control, dose response (AID 493247); assay type: functional, cell-based; conditions: Fibroblast
[24] = target: Glyceraldehyde-3-phosphate dehydrogenase (Homo sapiens, UniProt P04406)
[25] = target: Alkaline phosphatase, placental type (Homo sapiens, UniProt P05187); test: human placental alkaline phosphatase inhibition – biochemical, luminescence, confirmation (AID 1512); assay type: functional
[26] = target: T5, Alkaline phosphatase, tissue-nonspecific isozyme (Homo sapiens, UniProt P05186); test: potency against alkaline phosphatase TNAP – biochemical, luminescent, dose response, SAR follow-up (AID 1056)
T5 sequence (P05186 whole entry): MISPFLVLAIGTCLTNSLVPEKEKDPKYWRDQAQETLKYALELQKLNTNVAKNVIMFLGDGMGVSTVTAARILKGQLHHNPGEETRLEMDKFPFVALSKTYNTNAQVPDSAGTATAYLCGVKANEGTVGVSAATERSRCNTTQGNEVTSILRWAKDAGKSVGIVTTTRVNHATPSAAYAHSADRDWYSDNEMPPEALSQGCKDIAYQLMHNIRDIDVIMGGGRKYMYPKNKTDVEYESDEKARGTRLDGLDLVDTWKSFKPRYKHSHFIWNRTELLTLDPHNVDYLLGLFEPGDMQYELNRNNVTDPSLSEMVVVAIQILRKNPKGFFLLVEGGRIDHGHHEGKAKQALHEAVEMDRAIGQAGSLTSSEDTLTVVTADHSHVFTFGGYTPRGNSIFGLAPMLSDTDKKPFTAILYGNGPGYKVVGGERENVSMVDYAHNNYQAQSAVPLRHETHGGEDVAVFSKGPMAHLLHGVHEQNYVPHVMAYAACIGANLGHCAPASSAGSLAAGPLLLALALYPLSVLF

T1 sequence (P51452 whole entry): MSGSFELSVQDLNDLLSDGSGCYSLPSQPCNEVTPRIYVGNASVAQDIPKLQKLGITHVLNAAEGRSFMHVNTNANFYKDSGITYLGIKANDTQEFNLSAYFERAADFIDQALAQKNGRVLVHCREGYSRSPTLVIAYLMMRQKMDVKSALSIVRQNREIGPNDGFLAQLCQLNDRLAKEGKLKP
T4 sequence (Q9Y2R2 whole entry): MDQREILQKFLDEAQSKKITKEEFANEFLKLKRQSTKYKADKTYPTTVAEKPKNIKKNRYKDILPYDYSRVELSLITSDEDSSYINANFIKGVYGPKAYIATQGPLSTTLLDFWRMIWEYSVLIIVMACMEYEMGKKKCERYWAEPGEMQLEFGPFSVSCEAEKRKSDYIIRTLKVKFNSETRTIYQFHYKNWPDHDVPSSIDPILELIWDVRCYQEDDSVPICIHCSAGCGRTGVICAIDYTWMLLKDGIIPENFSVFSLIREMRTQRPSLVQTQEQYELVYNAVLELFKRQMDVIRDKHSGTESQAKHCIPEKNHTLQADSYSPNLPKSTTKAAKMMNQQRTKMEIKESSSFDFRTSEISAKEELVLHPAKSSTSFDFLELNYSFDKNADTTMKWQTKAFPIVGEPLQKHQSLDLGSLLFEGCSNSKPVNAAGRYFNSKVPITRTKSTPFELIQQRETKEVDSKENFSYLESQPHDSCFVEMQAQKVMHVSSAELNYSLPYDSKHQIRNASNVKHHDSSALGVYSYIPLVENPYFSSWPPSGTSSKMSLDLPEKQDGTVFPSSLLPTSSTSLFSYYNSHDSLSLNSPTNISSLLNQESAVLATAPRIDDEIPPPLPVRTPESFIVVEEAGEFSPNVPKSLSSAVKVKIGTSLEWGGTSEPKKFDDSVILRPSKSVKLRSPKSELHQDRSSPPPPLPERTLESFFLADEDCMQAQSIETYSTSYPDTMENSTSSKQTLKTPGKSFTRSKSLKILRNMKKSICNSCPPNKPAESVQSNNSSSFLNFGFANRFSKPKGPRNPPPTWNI
Chain of Coagulation factor XII (P00748 20-372 limits assumed): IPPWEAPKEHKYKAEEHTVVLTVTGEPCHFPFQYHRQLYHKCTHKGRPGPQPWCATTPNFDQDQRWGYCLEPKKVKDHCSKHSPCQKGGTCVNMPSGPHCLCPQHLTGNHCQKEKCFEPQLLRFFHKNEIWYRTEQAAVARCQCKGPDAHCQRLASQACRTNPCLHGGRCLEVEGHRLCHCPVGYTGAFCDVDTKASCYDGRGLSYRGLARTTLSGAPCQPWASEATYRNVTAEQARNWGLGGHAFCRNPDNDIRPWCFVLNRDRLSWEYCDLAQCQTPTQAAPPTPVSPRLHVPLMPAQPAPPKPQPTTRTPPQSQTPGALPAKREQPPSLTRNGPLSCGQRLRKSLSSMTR
Chain of Coagulation factor XII (P00748 373-615 limits assumed): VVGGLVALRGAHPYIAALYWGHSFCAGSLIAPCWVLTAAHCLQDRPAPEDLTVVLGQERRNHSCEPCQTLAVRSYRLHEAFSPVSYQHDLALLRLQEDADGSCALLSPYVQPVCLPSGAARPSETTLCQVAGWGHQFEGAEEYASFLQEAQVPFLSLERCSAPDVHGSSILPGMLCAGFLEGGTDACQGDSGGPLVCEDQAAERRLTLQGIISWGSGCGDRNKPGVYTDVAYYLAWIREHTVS
Chain of Nucleotide-binding oligomerization domain-containing protein 2 (Q9HC29 whole entry, the tested form may be a part): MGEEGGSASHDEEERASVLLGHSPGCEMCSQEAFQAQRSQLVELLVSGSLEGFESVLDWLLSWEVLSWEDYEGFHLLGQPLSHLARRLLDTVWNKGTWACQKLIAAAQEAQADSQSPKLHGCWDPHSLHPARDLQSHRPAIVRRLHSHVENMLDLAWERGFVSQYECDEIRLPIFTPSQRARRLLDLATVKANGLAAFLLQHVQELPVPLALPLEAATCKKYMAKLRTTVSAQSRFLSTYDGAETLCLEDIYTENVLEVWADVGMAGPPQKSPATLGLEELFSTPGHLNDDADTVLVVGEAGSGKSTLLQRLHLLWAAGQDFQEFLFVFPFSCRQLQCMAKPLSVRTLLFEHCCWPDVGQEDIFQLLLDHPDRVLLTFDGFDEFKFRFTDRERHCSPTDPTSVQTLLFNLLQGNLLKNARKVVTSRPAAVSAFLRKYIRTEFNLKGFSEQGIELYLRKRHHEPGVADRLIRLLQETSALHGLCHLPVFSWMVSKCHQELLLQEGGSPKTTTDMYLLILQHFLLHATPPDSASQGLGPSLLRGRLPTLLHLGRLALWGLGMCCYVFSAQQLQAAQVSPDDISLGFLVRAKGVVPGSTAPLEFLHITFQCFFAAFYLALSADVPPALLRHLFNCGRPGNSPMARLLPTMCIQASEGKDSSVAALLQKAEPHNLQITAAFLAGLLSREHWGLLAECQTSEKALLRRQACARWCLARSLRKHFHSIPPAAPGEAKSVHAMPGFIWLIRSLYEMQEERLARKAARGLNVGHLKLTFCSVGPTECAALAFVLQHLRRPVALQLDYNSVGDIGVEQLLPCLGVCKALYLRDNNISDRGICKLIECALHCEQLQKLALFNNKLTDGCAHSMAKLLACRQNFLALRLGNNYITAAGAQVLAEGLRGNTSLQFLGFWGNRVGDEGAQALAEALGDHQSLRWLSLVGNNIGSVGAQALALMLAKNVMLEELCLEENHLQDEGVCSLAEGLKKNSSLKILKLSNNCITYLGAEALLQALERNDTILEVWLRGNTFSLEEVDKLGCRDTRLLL
Chain of Glyceraldehyde-3-phosphate dehydrogenase (P04406 whole entry): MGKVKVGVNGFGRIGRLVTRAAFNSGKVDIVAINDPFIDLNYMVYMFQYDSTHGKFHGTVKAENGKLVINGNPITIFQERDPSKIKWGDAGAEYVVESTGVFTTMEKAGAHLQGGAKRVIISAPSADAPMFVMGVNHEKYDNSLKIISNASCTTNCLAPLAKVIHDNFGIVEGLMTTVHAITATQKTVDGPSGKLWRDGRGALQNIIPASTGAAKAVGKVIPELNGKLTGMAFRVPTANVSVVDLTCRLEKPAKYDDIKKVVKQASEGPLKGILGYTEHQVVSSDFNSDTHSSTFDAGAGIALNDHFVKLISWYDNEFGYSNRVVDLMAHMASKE
Chain of CAAX prenyl protease 2 (Q03530 whole entry): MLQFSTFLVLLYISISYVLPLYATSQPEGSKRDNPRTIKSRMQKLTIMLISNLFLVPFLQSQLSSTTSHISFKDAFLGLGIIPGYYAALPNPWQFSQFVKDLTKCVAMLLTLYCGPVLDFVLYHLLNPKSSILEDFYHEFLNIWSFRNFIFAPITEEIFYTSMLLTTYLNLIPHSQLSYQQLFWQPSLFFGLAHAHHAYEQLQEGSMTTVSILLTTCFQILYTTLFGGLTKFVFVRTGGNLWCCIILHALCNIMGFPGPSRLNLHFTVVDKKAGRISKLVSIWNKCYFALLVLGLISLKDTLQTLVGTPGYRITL
Chain of Tyrosine-protein phosphatase non-receptor type 12 (Q05209 whole entry): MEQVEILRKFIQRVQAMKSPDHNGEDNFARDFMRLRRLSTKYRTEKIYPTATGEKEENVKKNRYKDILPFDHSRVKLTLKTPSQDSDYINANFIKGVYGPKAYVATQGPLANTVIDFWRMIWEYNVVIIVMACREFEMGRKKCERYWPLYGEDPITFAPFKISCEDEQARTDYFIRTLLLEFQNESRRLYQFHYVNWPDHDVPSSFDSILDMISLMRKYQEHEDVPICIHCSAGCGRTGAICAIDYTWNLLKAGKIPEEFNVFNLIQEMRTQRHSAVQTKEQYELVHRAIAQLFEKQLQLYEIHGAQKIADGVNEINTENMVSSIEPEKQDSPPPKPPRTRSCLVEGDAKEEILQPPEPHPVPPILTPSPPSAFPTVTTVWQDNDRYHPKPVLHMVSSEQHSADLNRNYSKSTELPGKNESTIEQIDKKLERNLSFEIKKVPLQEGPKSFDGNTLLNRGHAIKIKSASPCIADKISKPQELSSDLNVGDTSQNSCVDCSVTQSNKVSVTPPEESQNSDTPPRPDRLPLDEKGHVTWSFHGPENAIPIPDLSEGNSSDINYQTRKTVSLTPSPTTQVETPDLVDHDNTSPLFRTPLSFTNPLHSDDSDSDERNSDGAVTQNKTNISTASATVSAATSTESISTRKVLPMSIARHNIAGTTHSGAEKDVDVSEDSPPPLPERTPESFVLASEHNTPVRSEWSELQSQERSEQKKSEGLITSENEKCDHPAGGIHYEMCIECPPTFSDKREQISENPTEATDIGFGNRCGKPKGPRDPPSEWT
Chain of Tumor necrosis factor (P01375 whole entry, the tested form may be a part): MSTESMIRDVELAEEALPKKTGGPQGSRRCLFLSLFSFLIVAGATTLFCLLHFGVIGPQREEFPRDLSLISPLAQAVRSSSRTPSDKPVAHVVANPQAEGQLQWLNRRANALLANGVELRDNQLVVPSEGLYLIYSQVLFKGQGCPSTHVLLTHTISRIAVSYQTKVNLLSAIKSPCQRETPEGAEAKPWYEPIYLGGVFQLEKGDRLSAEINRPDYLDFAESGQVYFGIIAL
Chain of G-protein coupled receptor 55 (Q9Y2T6 whole entry): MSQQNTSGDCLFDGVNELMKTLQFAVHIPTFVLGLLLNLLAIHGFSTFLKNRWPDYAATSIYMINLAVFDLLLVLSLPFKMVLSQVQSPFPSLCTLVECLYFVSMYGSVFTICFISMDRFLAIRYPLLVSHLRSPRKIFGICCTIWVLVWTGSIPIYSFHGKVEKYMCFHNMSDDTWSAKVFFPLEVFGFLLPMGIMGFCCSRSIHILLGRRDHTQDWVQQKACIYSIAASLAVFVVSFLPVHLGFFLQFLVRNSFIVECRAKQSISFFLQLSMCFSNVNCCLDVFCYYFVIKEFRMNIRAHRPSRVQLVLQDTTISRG

In the case of `CC(C)C[C@@H](CSc1ccc(Br)cc1)N1CCN(CC(C)C)CCC1=O`, the EC50 [1] is reported as 15.3 µM (inactive).

For `CN(CC(=O)Nc1cccnc1)S(=O)(=O)c1cc(Cl)ccc1Cl`, the IC50 (Coagulation factor XII) was > 50 µM (inactive).

For `OC1c2cc(Br)ccc2N=C2CCCN21` (stereo unspecified), the CC50 (Vero [2]) was 71.5 µM (active), the CC50 (Vero [3]) was 35.5 µM (active) and the CC50 (Vero [4]) was > 80 µM (active). The IC50 [5] was 14.5 µM (active), the IC50 (Vero [6]) was 25.7 µM (active) and the IC50 (Vero [7]) was > 25 µM (active). The EC50 [8] was 3.78 µM (active) and the EC50 [9] was > 60 µM (not active).

For `NS(=O)(=O)c1ccc(NC(=S)NC2CC2)cc1`, the IC50 [10] was 12.5 µM (active), the IC50 [11] was > 99 µM (inactive) and the IC50 [12] was 0.588 µM (active). For the same compound, the IC50 [13] was > 100 µM (inactive), the IC50 [14] was > 100 µM (inactive) and the IC50 [15] was 27.9 µM (active). The IC50 [16] was 5.38 µM (active) and the IC50 [17] was > 99 µM (inactive).

In the case of `COc1ccc(-c2cc(C(=O)NC3CCCc4c3cnn4-c3ccccc3F)n(C)n2)cc1` (stereo unspecified), the IC50 (Tumor necrosis factor) is reported as 1.36 µM (active), the IC50 [18] is reported as 0.99 µM (active) and the IC50 [19] is reported as 1.34 µM (active). For the same compound, the IC50 (HEK293) was > 20 µM (inactive).

In the case of `CCn1cc(/C=C(\NC(=O)c2ccccc2F)C(=O)N2CCCC2)c2ccccc21`, the AC50 (CAAX prenyl protease 2) is reported as 3.91 µM (active).

For `CCc1ccc(/N=C2/NC(=O)/C(=C/c3ccc(OCC(=O)O)c(Cl)c3)S2)cc1`, the IC50 [20] was 7.69 µM (active), the IC50 [21] was 21.7 µM (active) and the IC50 [12] was 2.89 µM (active). For the same compound, the IC50 [14] was 2.71 µM (active), the IC50 [22] was 11.2 µM (active) and the IC50 [16] was 4.83 µM (active). The IC50 [17] was 65.7 µM (active).

For `CCCCCC(=O)N/N=C/c1ccc([N+](=O)[O-])o1`, the EC50 [8] was 0.183 µM (active), the EC50 [9] was > 60 µM (not active) and the AC50 [23] was 26.6 µM (active).

In the case of `O=C(O)c1cc(-c2ccccc2Cl)n[nH]1`, the IC50 [24] is reported as > 100 µM (not active), the IC50 [25] is reported as > 100 µM (inactive) and the IC50 [26] is reported as 0.584 µM (active).

— ChEMBL document CHEMBL1201862, “PubChem BioAssay data set” (2004)
